Key:
Type in all cases: in vivo
Veronica persica [1] = assay: Test Example 5: herbicidal effect by foliage application, plastic box (symbol R); details: 320 g/ha, 3 weeks after application
Summary of the method: (§1)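 Post-emergence spray; diluvial soil (sterilized), ~1.5 cm seed cover; greenhouse 25–30° C; 14-day-old plants; water-diluted emulsion at predetermined dose; visual score at 3 wk post-treatment.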

Chenopodium album = assay: Test Example 5: herbicidal effect by foliage application, plastic box (symbol O); details: 320 g/ha, 3 weeks after application
Summary of the method: as §1

[2] = tested on: Echinochloa crus-galli var. crus-galli; assay: Test Example 4: herbicidal effect by soil treatment (symbol H); details: for Herbicidal effect grade, H: Echinochloa crus-galli var. crus-galli: application herbicide amount 320 g/ha
Summary of the method: (§2)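 Seeds were sown in sterilized diluvial soil, covered with about 1.5 cm of soil, and the soil surface was sprayed with a water-diluted emulsion of the compound at a predetermined rate. Plants grew in a greenhouse at 25° C. to 30° C.; effects were scored visually 3 weeks after application.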

Abutilon theophrasti = assay: Test Example 5: herbicidal effect by foliage application, plastic box (symbol M); details: 320 g/ha, 3 weeks after application
Summary of the method: as §1

soybean = assay: Test Example 4: effect on crop by soil treatment (symbol d); details: for Effect on crop grade, d: soybean: application herbicide amount 320 g/ha
Summary of the method: (§3)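 Plants grew in a 25° C. to 30° C. greenhouse after spot-sowing of seeds, including beet, rapeseed, wheat and rice, into sterilized diluvial soil under roughly 1.5 cm of cover soil.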

Setaria viridis = assay: Test Example 5: herbicidal effect by foliage application, plastic box (symbol G); details: 320 g/ha, 3 weeks after application
Summary of the method: as §1

[3] = tested on: directly sowed rice plant; assay: Test Example 3: effect on crop by foliage application, Wagner pot (symbol b); details: application herbicide amount 320 g/ha; for b (directly sowed rice plant) effect on crop grade: Table 24
Summary of the method: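 Wagner pot (1/10000 are), alluvial soil, submerged 0.1–0.5 cm; sown E. crus-galli var. crus-galli, L. chinensis, C. difformis, rice; greenhouse 25–30 °C.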

beet [4] = assay: Test Example 5: effect on crop by foliage application, plastic box (symbol f); details: 320 g/ha, 3 weeks after application
Summary of the method: (§4)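 Diluvial soil, sterilized and boxed (21 × 13 × 7 cm), received spot-sown seed covered by about 1.5 cm soil; plants were then greenhouse-grown at 25–30° C.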

Avena fatua = assay: Test Example 5: herbicidal effect by foliage application, plastic box (symbol I); details: 320 g/ha, 3 weeks after application
Summary of the method: as §1

Stellaria media [5] = assay: Test Example 5: herbicidal effect by foliage application, plastic box (symbol P); details: 320 g/ha, 3 weeks after application
Summary of the method: as §1

rice plant = assay: Test Example 5: effect on crop by foliage application, plastic box (symbol b); details: 320 g/ha, 3 weeks after application
Summary of the method: as §4

corn = assay: Test Example 4: effect on crop by soil treatment (symbol c); details: for Effect on crop grade, c: corn: application herbicide amount 320 g/ha
Summary of the method: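 Sterilized diluvial soil, spot sowing, ~1.5 cm soil cover; greenhouse 25–30° C.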

Veronica persica [6] = assay: Test Example 4: herbicidal effect by soil treatment (symbol R); details: for Herbicidal effect grade, R: Veronica persica: application herbicide amount 320 g/ha
Summary of the method: as §2

Stellaria media [7] = assay: Test Example 4: herbicidal effect by soil treatment (symbol P)
Summary of the method: as §2

beet [8] = assay: Test Example 4: effect on crop by soil treatment (symbol f); details: for Effect on crop grade, f: beet: application herbicide amount 320 g/ha
Summary of the method: as §3

Apera spica-venti = assay: Test Example 5: herbicidal effect by foliage application, plastic box (symbol L); details: 320 g/ha, 3 weeks after application
Summary of the method: as §1

Digitaria ciliaris [9] = assay: Test Example 4: herbicidal effect by soil treatment (symbol F); details: for Herbicidal effect grade, F: Digitaria ciliaris: application herbicide amount 320 g/ha
Summary of the method: as §2

wheat = assay: Test Example 5: effect on crop by foliage application, plastic box (symbol e); details: 320 g/ha, 3 weeks after application
Summary of the method: as §4

Alopecurus myosuroides = assay: Test Example 4: herbicidal effect by soil treatment (symbol J); details: for Herbicidal effect grade, J: Alopecurus myosuroides: application herbicide amount 320 g/ha
Summary of the method: as §2

rice = assay: Test Example 4: effect on crop by soil treatment (symbol b); details: for Effect on crop grade, b: directly sowed rice plant: application herbicide amount 320 g/ha
Summary of the method: as §3

Digitaria ciliaris [10] = assay: Test Example 5: herbicidal effect by foliage application, plastic box (symbol F); details: 320 g/ha, 3 weeks after application
Summary of the method: as §1

rapeseed = assay: Test Example 4: effect on crop by soil treatment (symbol g); details: for Effect on crop grade, g: rapeseed: application herbicide amount 320 g/ha
Summary of the method: as §3

Lolium multiflorum Lam. = assay: Test Example 4: herbicidal effect by soil treatment (symbol K); details: for Herbicidal effect grade, K: Lolium multiflorum Lam.: application herbicide amount 320 g/ha
Summary of the method: as §2

Galium spurium = assay: Test Example 5: herbicidal effect by foliage application, plastic box (symbol Q); details: 320 g/ha, 3 weeks after application
Summary of the method: as §1

## CCCCCCCCS(=O)(=O)OC1=C(c2c(C)cc(C)cc2C)C(=O)C(CC(C)=NOC)C1 (stereo not drawn) [1-107]
Veronica persica [1]
  R: Veronica persica, herbicidal effect (criteria 0-5): 0 (Herbicidal ratio of 5% or lower (almost no effect))
Chenopodium album
  O: Chenopodium album, herbicidal effect (criteria 0-5): 0 (Herbicidal ratio of 5% or lower (almost no effect))
[2]; 320 g/ha
  H: Echinochloa crus-galli var. crus-galli, herbicidal effect grade: 5 (Herbicidal ratio of 90% or more (almost completely withered))
Abutilon theophrasti
  M: Abutilon theophrasti, herbicidal effect (criteria 0-5): 1 (Herbicidal ratio of 5% or higher and lower than 20%)
soybean; 320 g/ha
  d: soybean, effect grade on crop: 0 (Herbicidal ratio of 5% or lower (almost no effect))
Setaria viridis
  G: Setaria viridis, herbicidal effect (criteria 0-5): 5 (Herbicidal ratio of 90% or more (almost completely withered))
[3]
  effect on crop b (directly sowed rice plant), grade 0-5: 5 (Herbicidal ratio of 90% or more (almost completely withered))
Beet [4]
  f: beet, effect on crop (criteria 0-5): 0 (Herbicidal ratio of 5% or lower (almost no effect))
Avena fatua
  I: Avena fatua, herbicidal effect (criteria 0-5): 5 (Herbicidal ratio of 90% or more (almost completely withered))
Stellaria media [5]
  P: Stellaria media, herbicidal effect (criteria 0-5): 0 (Herbicidal ratio of 5% or lower (almost no effect))
Rice plant
  b: directly sowed rice plant, effect on crop (criteria 0-5): 5 (Herbicidal ratio of 90% or more (almost completely withered))
corn; 320 g/ha
  c: corn, effect grade on crop: 0 (Herbicidal ratio of 5% or lower (almost no effect))
Veronica persica [6]; 320 g/ha
  R: Veronica persica, herbicidal effect grade: 0 (Herbicidal ratio of 5% or lower (almost no effect))
Stellaria media [7]; 320 g/ha
  P: Stellaria media, herbicidal effect grade: 0 (Herbicidal ratio of 5% or lower (almost no effect))
Beet [8]; 320 g/ha
  f: beet, effect grade on crop: 0 (Herbicidal ratio of 5% or lower (almost no effect))
Apera spica-venti
  L: Apera spica-venti, herbicidal effect (criteria 0-5): 5 (Herbicidal ratio of 90% or more (almost completely withered))
Digitaria ciliaris [9]; 320 g/ha
  F: Digitaria ciliaris, herbicidal effect grade: 5 (Herbicidal ratio of 90% or more (almost completely withered))
wheat
  e: wheat, effect on crop (criteria 0-5): 2 (Herbicidal ratio of 20% or higher and lower than 40%)
Alopecurus myosuroides; 320 g/ha
  J: Alopecurus myosuroides, herbicidal effect grade: 5 (Herbicidal ratio of 90% or more (almost completely withered))
rice; 320 g/ha
  b: directly sowed rice plant, effect grade on crop: 5 (Herbicidal ratio of 90% or more (almost completely withered))
Digitaria ciliaris [10]
  F: Digitaria ciliaris, herbicidal effect (criteria 0-5): 4 (Herbicidal ratio of 70% or higher and lower than 90%)
rapeseed; 320 g/ha
  g: rapeseed, effect grade on crop: 2 (Herbicidal ratio of 20% or higher and lower than 40%)
Lolium multiflorum Lam.; 320 g/ha
  K: Lolium multiflorum Lam., herbicidal effect grade: 5 (Herbicidal ratio of 90% or more (almost completely withered))

## CC#Cc1cc(C)c(C2=C(OC(=O)COc3ccccc3)CC(CC(C)=NOCC(F)(F)F)C2=O)c(C)c1 (stereo not drawn) [9-013]
Veronica persica [1]
  R: Veronica persica, herbicidal effect grade: 4 (Herbicidal ratio of 70% or higher and lower than 90%)
Chenopodium album
  O: Chenopodium album, herbicidal effect grade: 3 (Herbicidal ratio of 40% or higher and lower than 70%)
[2]
  Herbicidal effect grade, H: Echinochloa crus-galli var. crus-galli: 5 (Herbicidal ratio of 90% or more (almost completely withered))
Abutilon theophrasti
  M: Abutilon theophrasti, herbicidal effect grade: 4 (Herbicidal ratio of 70% or higher and lower than 90%)
soybean
  Effect on crop grade, d: soybean: 0 (Herbicidal ratio of 5% or lower (almost no effect))
Setaria viridis
  G: Setaria viridis, herbicidal effect grade: 5 (Herbicidal ratio of 90% or more (almost completely withered))
[3]
  b (directly sowed rice plant) effect on crop grade: 5 (Herbicidal ratio of 90% or more (almost completely withered))
Beet [4]
  f: beet, effect on crop grade: 4 (Herbicidal ratio of 70% or higher and lower than 90%)
Avena fatua
  I: Avena fatua, herbicidal effect grade: 5 (Herbicidal ratio of 90% or more (almost completely withered))
Stellaria media [5]
  P: Stellaria media, herbicidal effect grade: 2 (Herbicidal ratio of 20% or higher and lower than 40%)
Rice plant
  b: directly sowed rice plant, effect on crop grade: 5 (Herbicidal ratio of 90% or more (almost completely withered))
corn
  Effect on crop grade, c: corn: 5 (Herbicidal ratio of 90% or more (almost completely withered))
Veronica persica [6]
  Herbicidal effect grade, R: Veronica persica: 4 (Herbicidal ratio of 70% or higher and lower than 90%)
Stellaria media [7]; application herbicide amount 320 g/ha
  Herbicidal effect grade, P: Stellaria media: 0 (Herbicidal ratio of 5% or lower (almost no effect))
Beet [8]
  Effect on crop grade, f: beet: 5 (Herbicidal ratio of 90% or more (almost completely withered))
Apera spica-venti
  L: Apera spica-venti, herbicidal effect grade: 5 (Herbicidal ratio of 90% or more (almost completely withered))
Digitaria ciliaris [9]
  Herbicidal effect grade, F: Digitaria ciliaris: 5 (Herbicidal ratio of 90% or more (almost completely withered))
wheat
  e: wheat, effect on crop grade: 4 (Herbicidal ratio of 70% or higher and lower than 90%)
Alopecurus myosuroides
  Herbicidal effect grade, J: Alopecurus myosuroides: 5 (Herbicidal ratio of 90% or more (almost completely withered))
rice
  Effect on crop grade, b: directly sowed rice plant: 5 (Herbicidal ratio of 90% or more (almost completely withered))
Digitaria ciliaris [10]
  F: Digitaria ciliaris, herbicidal effect grade: 5 (Herbicidal ratio of 90% or more (almost completely withered))
rapeseed
  Effect on crop grade, g: rapeseed: 4 (Herbicidal ratio of 70% or higher and lower than 90%)
Lolium multiflorum Lam.
  Herbicidal effect grade, K: Lolium multiflorum Lam.: 5 (Herbicidal ratio of 90% or more (almost completely withered))

## COCCON=C(C)CC1CC(O)=C(c2c(C)cc(Br)cc2C)C1=O (stereo not drawn) [9-017]
Veronica persica [1]
  R: Veronica persica, herbicidal effect grade: 0 (Herbicidal ratio of 5% or lower (almost no effect))
Chenopodium album
  O: Chenopodium album, herbicidal effect grade: 0 (Herbicidal ratio of 5% or lower (almost no effect))
[2]
  Herbicidal effect grade, H: Echinochloa crus-galli var. crus-galli: 0 (Herbicidal ratio of 5% or lower (almost no effect))
Abutilon theophrasti
  M: Abutilon theophrasti, herbicidal effect grade: 0 (Herbicidal ratio of 5% or lower (almost no effect))
soybean
  Effect on crop grade, d: soybean: 0 (Herbicidal ratio of 5% or lower (almost no effect))
Setaria viridis
  G: Setaria viridis, herbicidal effect grade: 5 (Herbicidal ratio of 90% or more (almost completely withered))
[3]
  b (directly sowed rice plant) effect on crop grade: 5 (Herbicidal ratio of 90% or more (almost completely withered))
Beet [4]
  f: beet, effect on crop grade: 0 (Herbicidal ratio of 5% or lower (almost no effect))
Avena fatua
  I: Avena fatua, herbicidal effect grade: 4 (Herbicidal ratio of 70% or higher and lower than 90%)
Stellaria media [5]
  P: Stellaria media, herbicidal effect grade: 0 (Herbicidal ratio of 5% or lower (almost no effect))
Rice plant
  b: directly sowed rice plant, effect on crop grade: 5 (Herbicidal ratio of 90% or more (almost completely withered))
corn
  Effect on crop grade, c: corn: 0 (Herbicidal ratio of 5% or lower (almost no effect))
Veronica persica [6]
  Herbicidal effect grade, R: Veronica persica: 0 (Herbicidal ratio of 5% or lower (almost no effect))
Beet [8]
  Effect on crop grade, f: beet: 0 (Herbicidal ratio of 5% or lower (almost no effect))
Apera spica-venti
  L: Apera spica-venti, herbicidal effect grade: 3 (Herbicidal ratio of 40% or higher and lower than 70%)
Digitaria ciliaris [9]
  Herbicidal effect grade, F: Digitaria ciliaris: 4 (Herbicidal ratio of 70% or higher and lower than 90%)
wheat
  e: wheat, effect on crop grade: 3 (Herbicidal ratio of 40% or higher and lower than 70%)
Alopecurus myosuroides
  Herbicidal effect grade, J: Alopecurus myosuroides: 0 (Herbicidal ratio of 5% or lower (almost no effect))
rice
  Effect on crop grade, b: directly sowed rice plant: 1 (Herbicidal ratio of 5% or higher and lower than 20%)
Digitaria ciliaris [10]
  F: Digitaria ciliaris, herbicidal effect grade: 4 (Herbicidal ratio of 70% or higher and lower than 90%)
rapeseed
  Effect on crop grade, g: rapeseed: 0 (Herbicidal ratio of 5% or lower (almost no effect))
Galium spurium
  Q: Galium spurium, herbicidal effect grade: 0 (Herbicidal ratio of 5% or lower (almost no effect))
Lolium multiflorum Lam.
  Herbicidal effect grade, K: Lolium multiflorum Lam.: 0 (Herbicidal ratio of 5% or lower (almost no effect))
